From patent US11013746B2, “Drug for preventing and/or treating polycystic kidney disease” (OTSUKA PHARMACEUTICAL CO., LTD., priority 2012, dated 2021)

Test system: pcy mice
Experiment: Effect of tolvaptan and octreotide, alone or combined, on kidney weight of pcy mice (PKD model animals)
Format: in vivo
Conditions: male pcy mice, 0.03% tolvaptan in feed and/or octreotide 300 μg/kg × 2/day sc; for kidney weight suppressive effect compared to the pcy control group: 15 weeks of age, Dunnett's test; for Kidney weight (% body weight) Mean ± SE: 15 weeks old at autopsy, treated from 5 to 15 weeks of age, pcy control 8.02 ± 0.66, normal DBA 1.53 ± 0.04
Experimental: Individual or combined effects of tolvaptan, which is a vasopressin receptor antagonist, and octreotide, which is a somatostatin analogue, against polycystic kidney disease were evaluated using pcy mice, which are PKD model animals.
The aforementioned pcy mice are adult polycystic kidney disease model mice, and the mode of inheritance is autosomal recessive. […] It has been reported that compared to wild-type mice, pcy mice have increased renal cAMP levels and elevated renal mRNA levels of aquaporin-2 and vasopressin V2 receptor (V2R). For details, see Non-patent Literature (NPL) 1.
Based on the body weight at 4 weeks of age and the renal volume measured by MRI, the pcy mice (male) were divided into the following four groups (each group: 9 mice):
(2) a group receiving a feed containing 0.03% tolvaptan;
(3) a group receiving octreotide (300 μg/kg×2/day sc); and
(4) a group receiving a feed containing 0.03% tolvaptan, and octreotide (300 μg/kg×2/day sc).
As normal control mice, DBA/2JJcl mice (5 mice) were used. A 0.03% tolvaptan-containing MF feed was given to the groups receiving tolvaptan. A MF feed not containing tolvaptan was given to the other groups, i.e., the control group and the group receiving octreotide alone. Sandostatin® subcutaneous injection (100 μg/ml) was diluted with physiological saline and subcutaneously injected in an amount of 300 μg/kg/10 ml to the group receiving octreotide twice a day, morning and evening.
The drug treatment was started from 5 weeks of age, and continued until 15 weeks of age. Urine was collected from each mouse at 14 weeks of age using metabolic cages for 19 hours, and urine volume and urinary albumin excretion were measured.
The DBA control mice and pcy mice were sacrificed under isoflurane anesthesia at 15 weeks of age to collect their blood, and right and left kidneys. Plasma parameters were measured from the obtained blood, and the weight of right and left kidneys was measured.

| Molecule | kidney weight suppressive effect compared to the pcy control group | Kidney weight (% body weight) Mean ± SE [% body weight] |
| --- | --- | --- |
| (−)-D-phenylalanyl-L-cysteinyl-L-phenylalanyl-D-tryptophyl-L-lysyl-L-threonyl-N-[(1R,2R)-2-hydroxy-1-(hydroxymethyl)propyl]-L-cysteinamide cyclic (2-47) disulfide [octreotide] | did not exhibit significant kidney weight suppressive effects | 6.68 ± 0.65 |
| Cc1ccccc1C(=O)Nc1ccc(C(=O)N2CCCC(O)c3cc(Cl)ccc32)c(C)c1 (stereo not shown) [tolvaptan, 7-chloro-5-hydroxy-1-[2-methyl-4-(2-methylbenzoylamino)benzoyl]-2,3,4,5-tetrahydro-1H-benzoazepine] | did not exhibit significant kidney weight suppressive effects | 7.28 ± 0.84 |
